pEC50: −log10 of the molar value.
What was measured:
human CB2 receptor = molecular target: T1, human CB2 receptor (Homo sapiens, UniProt P34972); assay: CB2 receptor affinity ([3H]-CP-55,940 displacement, HEK cell membranes); format: binding; settings: displacement of radioligand [3H]-CP-55,940
T1 construct: expressed in transfected cells; host or cells: human embryonic kidney (HEK) cells, Semliki Forest Virus system, membrane preparations
Procedure: (§1) The affinity of the compounds of the invention for cannabinoid CB2 receptors was determined using membrane preparations of human embryonic kidney (HEK) cells in which the human CB2 receptor is transiently transfected using a Semliki Forest Virus system in conjunction with [^3H]-CP-55,940 as radioligand. After incubation of freshly prepared cell membrane preparation with the [^3H]-ligand, with or without addition of compounds of the invention, separation of bound and free ligand was performed by filtration over glass fiber filters. Radioactivity on the filter was measured by scintillation counting.
(§2) The ability of the compounds to displace the radioligand [^3H]-CP-55,940 was measured at a concentration of 10 μM and values provided as [% inhibition @ 10 μM] both for the CB1 and CB2 receptor assay, The lower % inhibition is, the lower the likelihood of side effects based on CB1 or CB2 receptor inhibition is.

ABCA1 protein = assay: Detection of upregulation of ABCA1 protein in cells (ApoA-I binding, high content image analysis); format: cell-based; settings: THP-1 macrophage cells; for % increase of ABCA1 at 3 μM: 24 hrs with compound; for pEC50: ABCA1 protein increasing efficacy
Procedure: The ability of compounds of the invention to increase the level of ABCA1 protein is determined in replicate cultures of THP-1 macrophage cells in 96-well microplates. Cells are plated at an initial density of 100,000 cells/well in 100 μl medium and differentiated to adherent macrophages with the addition of PMA (100 nM) for 68 hrs in 10% fetal bovine serum, 3 μl/L of b-mercaptoethanol, RPMI-1640 medium. Then, cells are incubated with RPMI-1640 medium containing 1% FCS, 25 μg/ml acetylated LDL, for 24 hours at 37°. Following incubation with acetylated LDL, cells are washed twice with 50 μl PBS and incubated with 100 μl of RPMI-1640 medium containing the compound of interest solubilized in DMSO for an additional 24 hrs. The final DMSO concentration in presence of cells is maintained at 0.5%. ApoA-I binding assay using High Content Image Analysis is initiated by replacing with fresh medium, RPMI without Phenol Red, 0.2% BSA containing AlexaFluor®647 labeled ApoA-I for 2 h/37° C./5% CO2. Then, cells are fixed with 4% Formaldehyde inPBS (15 min, RT). Following Nuclei are stained with Hoechst solution (3 μM PBS) and Cytoplasm with Cell Mask Blue (2 μg/ml PBS), 15 min, RT. Finally the stained cells are fixed with a second round of formaldehyde treatment. Fixed stained cells are washed and kept in PBS at 4° C. and can be read immediately until one month after preparation.
The Alexa Fluor 647-labeled Apolipoprotein A-I (20 nM) was prepared as follows: Human recombinant Apolipoprotein A-I (ApoA-I) was exchanged to a buffer of 0.02 M NaHCO3 at pH 8.2 on an NAP desalting column (GE Healthcare) and brought to a concentration to 40 μM (1.13 mg/ml) by adjustment with the same buffer. The ApoA-I was fluorescently labeled by incubation with Alexa Fluor carboxylic acid succimidyl ester. (Alexa Fluor 647, Invitrogen A-20006) at a 2:1 molar ratio (Alexa to ApoA-I) for 1 h under shaking at RT. The remaining unconjugated label was removed by buffer exchange to 0.02M NaHCO3 at pH 8.2.
Imaging and data collection were performed on an OPERA confocal microplate imaging reader using a 20× water immersion objective and UV360 or 405 laser to identify the cell nuclei and a 635 laser to identify the fluorescent ApoA-I. Eight fields of view are captured per well. Image capture and analysis was performed with the Acapella software. Background fluorescence detected in control wells without ApoA-I was subtracted.
Using XLfit3 program (ID Business Solutions Ltd. UK), the model 205 for Dose Response One Site is used to calculate the EC50 values. The compounds of the present invention increase the level of ABCA1 protein by more than 45% at a concentration of 3 μM. […] Even more preferably, the compounds of the present invention have EC50 values in a range of 0.1 μM to 3 μM.

human CB1 receptor = molecular target: T2, human CB1 receptor (Homo sapiens, UniProt P21554); assay: CB1 receptor affinity ([3H]-CP-55,940 displacement, HEK cell membranes); format: binding; settings: displacement of radioligand [3H]-CP-55,940
T2 construct: expressed in transfected cells; host or cells: human embryonic kidney (HEK) cells, Semliki Forest Virus system, membrane preparations
Procedure: as §1, with “cannabinoid” for “cannabinoid CB2”, “CB1” for “CB2”, “[3H]-CP-55,940” for “[^3H]-CP-55,940”
as §2

T1 sequence (P34972 whole entry): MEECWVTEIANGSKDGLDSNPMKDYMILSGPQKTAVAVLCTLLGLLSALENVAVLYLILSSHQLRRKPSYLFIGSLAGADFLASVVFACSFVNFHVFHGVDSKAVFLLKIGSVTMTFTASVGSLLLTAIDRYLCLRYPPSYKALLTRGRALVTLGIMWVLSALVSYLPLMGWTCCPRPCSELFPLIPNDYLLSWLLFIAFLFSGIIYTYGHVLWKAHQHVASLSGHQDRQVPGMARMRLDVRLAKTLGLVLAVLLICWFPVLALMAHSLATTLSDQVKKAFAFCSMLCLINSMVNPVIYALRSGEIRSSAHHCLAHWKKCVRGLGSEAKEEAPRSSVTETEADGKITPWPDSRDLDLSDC
T2 sequence (P21554 whole entry): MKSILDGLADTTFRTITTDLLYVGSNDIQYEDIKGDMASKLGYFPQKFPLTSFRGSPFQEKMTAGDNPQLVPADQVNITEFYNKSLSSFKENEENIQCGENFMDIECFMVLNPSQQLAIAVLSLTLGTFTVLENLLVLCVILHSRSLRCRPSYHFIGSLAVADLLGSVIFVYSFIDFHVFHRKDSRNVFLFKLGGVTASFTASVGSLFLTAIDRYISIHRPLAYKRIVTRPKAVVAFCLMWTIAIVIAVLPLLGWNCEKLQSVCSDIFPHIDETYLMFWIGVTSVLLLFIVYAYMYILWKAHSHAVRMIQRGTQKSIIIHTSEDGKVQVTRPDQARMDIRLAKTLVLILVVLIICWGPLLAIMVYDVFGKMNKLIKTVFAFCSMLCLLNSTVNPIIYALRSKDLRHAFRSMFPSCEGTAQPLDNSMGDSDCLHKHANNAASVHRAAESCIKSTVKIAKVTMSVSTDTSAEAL

Compound	inhibition at 10 µM (human CB2 receptor) [%]	% increase of ABCA1 at 3 μM (ABCA1 protein) [% @ 3 μM]	inhibition at 10 µM (human CB1 receptor) [%]	pEC50 (ABCA1 protein)
CCCCC(=O)Nc1cnc(OCC(F)(F)F)c(-c2ccc(Cl)cc2)c1 [Example 1, pentanoic acid[5-(4-chloro-phenyl)-6-(2,2,2-trifluoro-ethoxy)-pyridin-3-yl]-amide]	9.2	>45	45	
C[C@H](Oc1ncc(NC(=O)c2cccnn2)cc1-c1ccc(Cl)cc1)C(F)(F)F [Example 42, (S)-N-(5-(4-chlorophenyl)-6-(1,1,1-trifluoropropan-2-yloxy)pyridin-3-yl)pyridazine-3-carboxamide]	6		23	5.07
Cc1cc(C(=O)Nc2cnc(OCC(F)(F)F)c(-c3ccc(Cl)cc3)c2)no1 [Example 16, 5-methyl-3-isoxazolecarboxylic acid[5-(4-chloro-phenyl)-6-(2,2,2-trifluoro-ethoxy)-pyridin-3-yl]-amide]	-1		34	5.22
Cc1cnccc1C(=O)Nc1cnc(OCC(F)(F)F)c(-c2ccc(Cl)cc2)c1 [Example 18, N-[5-(4-chloro-phenyl)-6-(2,2,2-trifluoro-ethoxy)-pyridin-3-yl]-3-methyl-4-pyridinecarboxylic acid amide]	3	>45	37	
Cc1cc(-c2cc(NC(=O)c3cncnc3)cnc2OCC(F)(F)F)ccc1Cl [Example 52, N-(5-(4-chloro-3-methylphenyl)-6-(2,2,2-trifluoroethoxy)pyridin-3-yl)pyrimidine-5-carboxamide]	6	>45	34	
Cc1nnsc1C(=O)Nc1cnc(OCC(F)(F)F)c(-c2ccc(Cl)cc2)c1 [Example 27, 4-methyl-1,2,3-thiadiazole-5-carboxylic acid[5-(4-chloro-phenyl)-6-(2,2,2-trifluoro-ethoxy)-pyridin-3-yl]-amide]	10	>45	47	
COCCOc1ncc(NC(=O)c2ccccc2)cc1-c1ccc(Cl)c(C)c1 [Example 69, N-(5-(4-chloro-3-methylphenyl)-6-(2-methoxyethoxy)pyridin-3-yl)benzamide]	18	>45	35	
COC(C)C(=O)Nc1cnc(OCC(F)(F)F)c(-c2ccc(Cl)cc2)c1 (stereo not drawn) [Example 86, N-(5-(4-chlorophenyl)-6-(2,2,2-trifluoroethoxy)pyridin-3-yl)-2-methoxy-propanamide]	5	>45	48	
Cc1ccc(C(=O)Nc2cnc(OCC(F)(F)F)c(-c3ccc(Cl)cc3)c2)cn1 [Example 28, N-[5-(4-chloro-phenyl)-6-(2,2,2-trifluoro-ethoxy)-pyridin-3-yl]-6-methyl-3-pyridinecarboxylic acid amide]	-6	>45	36	
O=C(Nc1cnc(OC2CCC2)c(-c2ccc(Cl)cc2)c1)c1cccnc1 [Example 79, N-(5-(4-chlorophenyl)-6-cyclobutoxypyridin-3-yl)nicotinamide]	13	>45	29	
Cc1ocnc1C(=O)Nc1cnc(OC2CCC2)c(-c2ccc(Cl)cc2)c1 [Example 82, 5-Methyl-oxazole-4-carboxylic acid[5-(4-chloro-phenyl)-6-cyclobutoxy-pyridin-3-yl]-amide]	37	>45	29	
Cc1ccc(C(=O)Nc2cnc(OCC(F)(F)F)c(-c3ccc(Cl)cc3)c2)o1 [Example 68, N-(5-(4-chlorophenyl)-6-(2,2,2-trifluoroethoxy)pyridin-3-yl)-5-methylfuran-2-carboxamide]	4	>45	26	
O=C(Nc1cnc(OCC(F)(F)F)c(-c2ccc(Cl)cc2)c1)c1cc[nH]n1 [Example 24, 1H-pyrazole-3-carboxylic acid[5-(4-chloro-phenyl)-6-(2,2,2-trifluoro-ethoxy)-pyridin-3-yl]-amide]	-1		25	5.64
Cc1nn(C)cc1C(=O)Nc1cnc(OCC(F)(F)F)c(-c2ccc(Cl)cc2)c1 [Example 33, 1,3-dimethyl-1H-pyrazole-4-carboxylic acid[5-(4-chloro-phenyl)-6-(2,2,2-trifluoro-ethoxy)-pyridin-3-yl]-amide]	-2	>45	22	
O=C(Nc1cnc(OCC(F)(F)F)c(-c2ccc(F)c(Cl)c2)c1)c1cccnc1 [Example 45, N-(5-(3-chloro-4-fluorophenyl)-6-(2,2,2-trifluoroethoxy)pyridin-3-yl)nicotin-amide]	13		11	5.99
Nc1ccc(-c2cc(NC(=O)c3cncc(I)c3)cnc2OCC(F)(F)F)cc1Cl [Example 73, N-(5-(4-amino-3-chlorophenyl)-6-(2,2,2-trifluoroethoxy)pyridin-3-yl)-5-iodonicotinamide]	22	>45	13	
C[C@H](Oc1ncc(NC(=O)c2cccnc2)nc1-c1ccc(Cl)cc1)C(F)(F)F [Example 48, (S)-N-(6-(4-chlorophenyl)-5-(1,1,1-trifluoropropan-2-yloxy)pyrazin-2-yl)nicotinamide]	-2	>45	40	
O=C(Nc1cnc(OCC(F)(F)F)c(-c2ccc(Cl)c(F)c2)c1)c1cccnc1 [Example 44, N-(5-(4-chloro-3-fluorophenyl)-6-(2,2,2-trifluoroethoxy)pyridin-3-yl)nicotin-amide]	14		15	5.90
C[C@H](Oc1ncc(NC(=O)c2cccnc2)cc1-c1ccc(Cl)cc1)C(F)(F)F [Example 43, (S)-N-(5-(4-chlorophenyl)-6-(1,1,1-trifluoropropan-2-yloxy)pyridin-3-yl)nicotinamide]	6		31	5.23
Cc1noc(C)c1C(=O)Nc1cnc(OCC(F)(F)F)c(-c2ccc(Cl)cc2)c1 [Example 31, 3,5-dimethyl-4-isoxazolecarboxylic acid[5-(4-chloro-phenyl)-6-(2,2,2-trifluoro-ethoxy)-pyridin-3-yl]-amide]	7	>45	44	
O=C(Nc1cnc(OCC2CC2)c(-c2ccc(Cl)cc2)c1)c1ccccc1 [Example 8, N-[5-(4-chloro-phenyl)-6-cyclopropylmethoxy-pyridin-3-yl]-benzamide]	15		52	5.56

From patent US8410107B2, “N-pyridin-3-yl or N-pyrazin-2-yl carboxamides” (Hoffmann-La Roche Inc., priority 2010, dated 2013)
